# Source: US20070292489A1, “METHOD FOR TREATMENT OF WOUND TREATMENT USING AGANOCIDES” (priority 2006, published 2007)
# Test system: human secondary intention wound
# Assay: Vacuum-assisted wound treatment combined with intermittent aganocide instillation
# Type: in vivo
# Conditions: pH about 4, 0.9% NaCl, 2-hour pumping at 125 mm Hg
# Experimental: A human secondary intention wound approximately 3-4 cm in diameter is fitted with a polyurethane sponge, pore size 400-600 microns cut to the size of the wound and twice the thickness of the wound and covered with an adhesive film, per instructions on the vacuum system. The outlet is connected to an IV bag (500 ml) with a 0.1% sodium 2-dichloroamino-2-methylpropanesulfonate solution adjusted with HCl to a pH of about 4, 0.9% NaCl and elevated to between 0.1 and 1 meter above the wound. A 1-cm hole is punctured in the adhesive film, and a second adhesive film is used to cover the hole, with the second outlet connected to the vacuum pump.
# Each cycle consists of three phases: a 2-hour pumping phase when the vacuum (125 mm Hg negative pressure) is connected and the IV bag is disconnected; a 1 second instilling phase when the vacuum is disconnected and the IV bag is connected and the aganoocide is applied to the wound; and a 1 minute holding phase when both vacuum and the IV bag are disconnected.
# Each treatment has about 24 cycles and starts with a pumping phase and proceeds for 48 hours. When the treatment is completed, the dressings are changed and the treatment is repeated until full granulation has been promoted and the granulation tissue is within the level of the skin, approximately 30 to 100 days, depending on the depth of the original wound. […]
smiles,measurement,setting,value
CC(C)(CS(=O)(=O)[O-])N(Cl)Cl.[Na+] [Sodium 2-dichloroamino-2-methylpropanesulfonate],wound healing results of the combination treatment regimen compared with vacuum-assisted wound healing without aganocide or aganocide alone,"Example 1: 0.1% solution, 1 second instilling, 1 minute holding, about 24 cycles per 48 hours",superior wound healing results
same,wound healing results of the combination treatment regimen compared with vacuum-assisted wound healing without aganocide or aganocide alone,"Example 2: 0.1% solution, 5 second instilling, 30 minute holding, about 19 cycles per 48 hours",superior wound healing results
